The series relates to rats. The experiment in a line: Chronic (10 day) dosing behavioral tests in rats. Conditions: for acoustic startle reactivity: 50 mg/kg. On the procedure:
The effects of chronic dosing of nepicastat in rats were examined. Between three and thirteen days prior to the first dosing day the rats were placed inside the startle apparatus and after a five minute acclimation period they were presented with a 118 dB noise burst on average once a minute (a variable inter-trial interval ranging between 30 and 90 seconds will be used) for 20 minutes. The startle responses were measured and a mean for the last twenty startle response was calculated for each rat.
The following behavioral tests were administered during and after chronic dosing; body core temperature, motor activity, acoustic startle reactivity, and pre-pulse inhibition of acoustic startle.
The animals were tested in an enclosed room with a white noise generator running Motor activity tests were conducted immediately after the body core temperature reading taken on dosing day ten (about 3 hours and 35 minutes after the morning daily dose of nepicastat, and SKF-102698, and 20 minutes prior to the daily administration of clonidine and d-amphetamine on dosing day ten). Motor activity tests were run for one hour. A diagnostic program was run on each of the motor activity chambers prior to each test session to assure that the photo beams and light sensors were operating properly. […] D-amphetamine was used as the positive control for this assay.
Rat body core temperatures were obtained by inserting the rectal probe 2 cm into the colon of each rat. Each rat's body core temperature was measured three times and the average of the three reading was calculated. Body core temperature readings were obtained immediately prior to the ten day chronic dosing schedule (to obtain a baseline), and three and half hour after the morning daily dose of nepicastat, and SKF-102698, and 15 minutes prior to the daily administration of clonidine and d-amphetamine, on dosing days one, five and ten. […] Both clonidine (an alpha2 agonist), and d-amphetamine (a dopamine releaser) were used as the positive controls for this assay.
Acoustic startle reactivity (a series of muscle contractions elicited by an intense burst of noise with a rapid onset), and pre-pulse inhibition (sensorimotor gating measured by analyzing any decrease in startle reactivity which occurs when a startling stimulus is immediately preceded by a non startling stimulus) were both measured in eight SR-Lab (San Diego Instruments, San Diego, Calif.) test stations. The rats were placed individually in a Plexiglas cylinder (10 cm diameter) which was housed in a ventilated sound-attenuating enclosure. Acoustic noise bursts (a broad band noise with a rise time and fall time of 1 msec) were presented via a speaker mounted 30 cm above the animal. Also, these speakers produced a 68 dB level of background noise throughout all test sessions. A piezoelectric accelerometer attached below the plexiglass cylinder transduced the subject's movement into a voltage which was then rectified and digitized (on a scale from 0 to 4095) by a PC computer equipped with SR-Lab software and interface assembly. A decibel meter was used to calibrate the speakers in each of the eight test station to ±1% of the mean. Additionally, a SR-Lab calibrating instrument was used to calibrate each of the eight startle detection apparatuses to ±2% of the mean. Startle reactivity and pre-pulse inhibition tests were run concurrently immediately alter the motor activity test (about 4 hours and 40 minutes after the morning daily injection of nepicastat, and SKF-102698, and 10 minutes after a supplemental administration of clonidine and d-amphetamine on dosing day ten).

For the molecule `Fc1cc(F)cc(Cn2cc[nH]c2=S)c1` [SKF-102698, reference compound], the pre-pulse inhibition result (dosing day ten) is given as “Neither d-amphetamine nor SKF-102698 was significantly different”. Moreover, for the setting “dosing day ten, nepicastat 5, 15, 50, SKF-102698 50 mg/kg bid, clonidine 20 μg/kg, d-amphetamine 2 mg/kg bid”, the “locomotor activity vs vehicle” value is recorded as “significantly lower locomotor activity”. Where the note is “rat, in vivo”, the pre-pulse inhibition result is given as “marginally higher percent prepulse inhibition” and the acoustic startle reactivity entry was “significantly lower startle response compared to cyclodextrin”.
Consider `Cl.NCc1c[nH]c(=S)n1[C@H]1CCc2c(F)cc(F)cc2C1` [nepicastat, (S)-5-Aminomethyl-1-(5,7-difluoro-1,2,3,4-tetrahydronaphth-2-yl)-2,3-dihydro-2-thioxo-1H-imidazole hydrochloride], for which, under “rat, in vivo”, the body core temperature result was “unaffected”, the pre-pulse inhibition result is “None of the nepicastat dose groups were significantly different” and the acoustic startle reactivity result was “significantly higher startle response than the SKF-102698”.

The values are drawn from patent US10561638B2, “Methods for treating dependence” (Biotie Therapies, Inc., priority 2007, dated 2020).
